From patent US9976141B2, “Compositions and methods for inhibiting gene expression of Hif2alpha” (Arrowhead Madison Inc., priority 2015, dated 2018)
“And” between values parts separate entries of the source, which are not always exact repeats. Equal entries are not always repeated.

Test system: human (tumor) Hif2α (EPAS1) mRNA
Test: Hif2α knockdown in orthotopic RCC tumor bearing mice, single injection of RNAi trigger-delivery polymer conjugate, RT-qPCR (Table 7)
Assay type: in vivo
Conditions: single tail vein injection, relative to isotonic glucose
Procedure, shortened: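 A single intravenous dose of Hif2α RNAi trigger–delivery polymer conjugate, or isotonic glucose vehicle, was given to nude mice with subcapsular A498-SEAP renal tumours (about 5–6 weeks old). At the indicated time, tumour RNA was assayed by biplex TaqMan qPCR against CycA, and relative expression was calculated by ΔΔCT versus vehicle.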

[1] = RNAi trigger 100 μg, polymer 064 250 μg
[2] = RNAi trigger 50 μg, polymer 064 125 μg
[3] = RNAi trigger 75 μg, polymer 064 187.5 μg

Substance | Relative Expression day 4 (Hif2α mRNA in kidney tumor) [1] | Relative Expression day 4 (Hif2α mRNA in kidney tumor) [2] | Relative Expression day 4 (Hif2α mRNA in kidney tumor) [3]
AD01892 (antisense UGUAAAACAAUUGUGUACUTT; sense AGUACACAAUUGUUUUACAT; Hif2alpha RNAi agent antisense strand; modified_base 2,4,6,8,10,12,14,15,18 /mod_base = “2′-deoxy-2′-fluoro corresponding nucleoside”; modified_base 1,3,5,7,9,11,13,16,17,19 /mod_base = “2′-O-methyl corresponding nucleoside”; modified_base 2,3,21 /mod_base = “5′-phosphorothioate corresponding nucleotide”; Hif2alpha RNAi agent sense strand; modified_base 1,3,4,7,9,11,13,15,17,19 /mod_base = “2′-deoxy-2′-fluoro corresponding nucleoside”; modified_base 2,5,6,8,10,12,14,16,18 /mod_base = “2′-O-methyl corresponding nucleoside”; modified_base 20 /mod_base = “3′-3′-linked nucleotide”; modified_base) | 0.146 | – | –
AD01893 (antisense UGUAAAACAAUUGUGUACUTT; sense AGUACACAAUUGUUUUACAT; Hif2alpha RNAi agent antisense strand; modified_base 2,4,6,8,10,12,14,15,18 /mod_base = “2′-deoxy-2′-fluoro corresponding nucleoside”; modified_base 1,3,5,7,9,11,13,16,17,19 /mod_base = “2′-O-methyl corresponding nucleoside”; modified_base 2,3,21 /mod_base = “5′-phosphorothioate corresponding nucleotide”; Hif2alpha RNAi agent sense strand; modified_base 3,4,7,9,11,13,17 /mod_base = “2′-deoxy-2′-fluoro corresponding nucleoside”; modified_base 1,2,5,6,8,10,12,14,15,16,18,19 /mod_base = “2′-O-methyl corresponding nucleoside”; modified_base 20 /mod_base = “3′-3′-linked nucleotide”; modified_base) | 0.115 | – | –
AD02074 (antisense TUUCAUGAAAUCGUUACGUTT; sense ACGUAACGAUUUCAUGAAAT; Hif2alpha RNAi agent antisense strand; modified_base 2,4,6,8,10,14,16,18 /mod_base = “2′-deoxy-2′-fluoro corresponding nucleoside”; modified_base 3,5,7,9,11,12,13,15,17,19 /mod_base = “2′-O-methyl corresponding nucleoside”; modified_base 2,3,21 /mod_base = “5′-phosphorothioate corresponding nucleotide”; Hif2alpha RNAi agent sense strand; modified_base 1,3,5,7,8,9,11,13,15,17,19 /mod_base = “2′-deoxy-2′-fluoro corresponding nucleoside”; modified_base 2,4,6,10,12,14,16,18 /mod_base = “2′-O-methyl corresponding nucleoside”; modified_base 20 /mod_base = “3′-3′-linked nucleotide”; modified_base 1) | – | 0.566 | –
AD02691 (antisense UUUCAUGAAAUCGUUACGUUG; sense ACGUAACGAUUUCAUGAAAT; Hif2alpha RNAi agent antisense strand; modified_base 2,4,6,8,10,14,16,18 /mod_base = “2′-deoxy-2′-fluoro corresponding nucleoside”; modified_base 1,3,5,7,9,11,12,13,15,17,19,20,21 /mod_base = “2′-O-methyl corresponding nucleoside”; modified_base 2,3,20,21 /mod_base = “5′-phosphorothioate corresponding nucleotide”; Hif2alpha RNAi agent sense strand; modified_base 1,3,5,7,8,9,11,13,15,17 /mod_base = “2′-deoxy-2′-fluoro corresponding nucleoside”; modified_base 2,4,6,10,12,14,16,18,19 /mod_base = “2′-O-methyl corresponding nucleoside”; modified_base 20 /mod_base = “3′-3′-linked nucleotide”; modi) | – | – | 0.124
AD02692 (antisense UUUCAUGAAAUCGUUACGUUG; sense ACGUAACGAUUUCAUGAAAT; Hif2alpha RNAi agent antisense strand; modified_base 2,4,6,8,10,14,16,18 /mod_base = “2′-deoxy-2′-fluoro corresponding nucleoside”; modified_base 1,3,5,7,9,11,12,13,15,17,19,20,21 /mod_base = “2′-O-methyl corresponding nucleoside”; modified_base 2,3,20,21 /mod_base = “5′-phosphorothioate corresponding nucleotide”; Hif2alpha RNAi agent sense strand; modified_base 3,5,7,8,9,13,15,17 /mod_base = “2′-deoxy-2′-fluoro corresponding nucleoside”; modified_base 1,2,4,6,10,11,12,14,16,18,19 /mod_base = “2′-O-methyl corresponding nucleoside”; modified_base 20 /mod_base = “3′-3′-linked nucleotide”; modi) | – | 0.092 | 0.089 and 0.121
AD02693 (antisense UUUCAUGAAAUCGUUACGUUG; sense ACGUAACGAUUUCAUGAAAT; Hif2alpha RNAi agent antisense strand; modified_base 2,4,6,8,10,14,16,18 /mod_base = “2′-deoxy-2′-fluoro corresponding nucleoside”; modified_base 1,3,5,7,9,11,12,13,15,17,19,20,21 /mod_base = “2′-O-methyl corresponding nucleoside”; modified_base 2,3,20,21 /mod_base = “5′-phosphorothioate corresponding nucleotide”; Hif2alpha RNAi agent sense strand; modified_base 5,7,9,13,15,17 /mod_base = “2′-deoxy-2′-fluoro corresponding nucleoside”; modified_base 1,2,3,4,6,8,10,11,12,14,16,18,19 /mod_base = “2′-O-methyl corresponding nucleoside”; modified_base 20 /mod_base = “3′-3′-linked nucleotide”; modi) | – | – | 0.122
AD02694 (antisense UUUCAUGAAAUCGUUACGUUG; sense ACGUAACGAUUUCAUGAAAT; Hif2alpha RNAi agent antisense strand; modified_base 2,4,6,8,10,14,16,18 /mod_base = “2′-deoxy-2′-fluoro corresponding nucleoside”; modified_base 1,3,5,7,9,11,12,13,15,17,19,20,21 /mod_base = “2′-O-methyl corresponding nucleoside”; modified_base 2,3,20,21 /mod_base = “5′-phosphorothioate corresponding nucleotide”; Hif2alpha RNAi agent sense strand; modified_base 3,7,9,13,17 /mod_base = “2′-deoxy-2′-fluoro corresponding nucleoside”; modified_base 1,2,4,5,6,8,10,11,12,14,15,16,18,19 /mod_base = “2′-O-methyl corresponding nucleoside”; modified_base 20 /mod_base = “3′-3′-linked nucleotide”; modi) | – | – | 0.099
AD02695 (antisense UUUCAUGAAAUCGUUACGUUG; sense ACGUAACGAUUUCAUGAAAT; Hif2alpha RNAi agent antisense strand; modified_base 2,4,6,8,10,14,16,18 /mod_base = “2′-deoxy-2′-fluoro corresponding nucleoside”; modified_base 1,3,5,7,9,11,12,13,15,17,19,20,21 /mod_base = “2′-O-methyl corresponding nucleoside”; modified_base 2,3,20,21 /mod_base = “5′-phosphorothioate corresponding nucleotide”; Hif2alpha RNAi agent sense strand; modified_base 7,9,13 /mod_base = “2′-deoxy-2′-fluoro corresponding nucleoside”; modified_base 1,2,3,4,5,6,8,10,11,12,14,15,16,17,18,19 /mod_base = “2′-O-methyl corresponding nucleoside”; modified_base 20 /mod_base = “3′-3′-linked nucleotide”; modi) | – | 0.123 | 0.101 and 0.155
AD02733 (antisense UUUCAUGAAAUCGUUACGUUG; sense ACGUAACGAUUUCAUGAAAT; Hif2alpha RNAi agent antisense strand; modified_base 2,4,6,8,10 /mod_base = “2′-deoxy-2′-fluoro corresponding nucleoside”; modified_base 1,3,5,7,9,11,12,13,14,15,16,17,18,19,20,21 /mod_base = “2′-O-methyl corresponding nucleoside”; modified_base 2,3,20,21 /mod_base = “5′-phosphorothioate corresponding nucleotide”; Hif2alpha RNAi agent sense strand; modified_base 7,9 /mod_base = “2′-deoxy-2′-fluoro corresponding nucleoside”; modified_base 1,2,3,4,5,6,8,10,11,12,13,14,15,16,17,18,19 /mod_base = “2′-O-methyl corresponding nucleoside”; modified_base 20 /mod_base = “3′-3′-linked nucleotide”; modi) | – | – | 0.283
